According to US11319318B2, “Pyridinones and isoquinolinones as inhibitors of the bromodomain BRD9” (Boehringer Ingelheim International GmbH, priority 2015, dated 2022):
pIC50: −log10 of the molar value.

target: T1, bromodomain of BRD9 (GST fusion) / acetylated histone H4 peptide (BET Bromodomain Ligand) (Homo sapiens, UniProt Q9H8M2); experiment: BRD9-H4 Tetraacetylated Peptide Inhibition AlphaScreen; type: binding
T1 construct: A GST fusion protein of the bromodomain of BRD9; purchased BPS Biosciences #32519
T1 sequence (Q9H8M2 136-240 limits assumed): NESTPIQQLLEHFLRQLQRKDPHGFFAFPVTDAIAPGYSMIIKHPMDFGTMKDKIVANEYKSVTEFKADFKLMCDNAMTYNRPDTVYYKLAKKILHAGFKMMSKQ
Text: BRD9-H4 Tetraacetylated Peptide Inhibition AlphaScreen
This assay is used to identify compounds which inhibit the interaction of the bromodomain of BRD9 with a tetra-acetylated peptide based on the sequence of histone H4 (termed the “BET Bromodomain ligand” as purchased from BPS Biosciences).
A GST fusion protein of the bromodomain of BRD9 and an acetylated histone H4 peptide (the “BET Bromodomain Ligand” are purchased as part of the BRD9 Inhibitor Screening Assay Kit at BPS Biosciences (Cat. Number: #32519)
AlphaScreen Beads (Perkin Elmer):
AlphaLISA Glutathione Acceptor Beads
AlphaScreen Streptavidin Donor Beads
Assay plates: Proxiplate-384 PLUS, white (PerkinElmer)
The assay is done in a darkened room below 100 Lux.
Compounds are dispensed onto assay plates using an Access Labcyte Workstation with the Labcyte Echo 550 from a DMSO solution. For the chosen highest concentration of 100 μM, 150 nl of compound solution are transferred from a 10 mM DMSO solution. A series of 11 concentrations is transferred for each compound at which each concentration is five-fold lower than the previous one (i.e. 100 μM, 20 μM, 4 μM, 0.8 μM, etc). DMSO is added such that every well has a total of 150 nl of DMSO.
15 μl of the resulting mix are added to the assay plates that contain 150 nl of the compounds. After 60 min at room temperature the signal is measured in a PerkinElmer Envision HTS Multilabel Reader using the AlphaScreen specifications from PerkinElmer.
Each plate contains negative controls where biotinylated BET Bromodomain Ligand and GST-BRD9 are left out and replaced by assay buffer. Negative control values are entered as low basis value when using the software GraphPad Prism for calculations.

SMILES	pIC50
Cc1ccc(-c2cn(C)c(=O)c3cccc(F)c23)cc1NS(C)(=O)=O [II-27]	5.93
Cc1cc(-c2cc(C)c(=O)n(C)c2)cc(C)c1C(=O)N1CCNCC1 [Compound I-160]	7.48
CCS(=O)(=O)Cc1cc(-c2cc(C)c(=O)n(C)c2)ccc1C(=O)N(C)C [Compound I-172]	6.53
Cc1cc(-c2ccc(C(=O)N3CC(O)C3)cc2)cn(C)c1=O [Compound I-39]	6.53
Cc1cc(-c2ccc(CN3C[C@@H]4C[C@H]3CN4)cc2)cn(C)c1=O [Compound I-189, 5-{4-[(S)-1-(2,5-Diaza-bicyclo[2.2.1]hept-2-yl)methyl]-phenyl}-1,3-dimethyl-1H-pyridin-2-one]	7.64
CNCc1ccc(-c2cc(C)c(=O)n(C)c2)cc1C [Compound I-36]	7.38
Cc1cc(-c2ccc(C(=O)N3CCCC3)cc2)cn(C)c1=O [Compound I-40]	6.30
Cc1cc(-c2ccc(N)cc2)cn(C)c1=O [Compound I-91]	6.89
Cc1cc(-c2ccc(C3(N)CC3)cc2)cn(C)c1=O [Compound I-69]	7.82
CCn1cc(-c2ccc(C)c(NS(C)(=O)=O)c2)cc(C)c1=O [Compound I-24]	5.48
Cc1ccc(-c2cn(C)c(=O)c3cccc(N)c23)cc1NS(C)(=O)=O [II-38, N-[5-(5-amino-2-methyl-1-oxo-1,2-dihydro-isoquinolin-4-yl)-2-methyl-phenyl]-methanesulfonamide]	5.07
COc1cc(C(=O)N2CCN(C)CC2)ccc1-c1cc(C)c(=O)n(C)c1 [Compound I-173, 5-[2-Methoxy-4-(4-methyl-piperazine-1-carbonyl)-phenyl]-1,3-dimethyl-1H-pyridin-2-one]	6.82
COc1cc(-c2cc(C)c(=O)n(C)c2)ccc1CN1CCNCC1 [Compound I-190, 5-(3-methoxy-4-piperazin-1-ylmethyl-phenyl)-1,3-dimethyl-1H-pyridin-2-one]	7.68
Cc1cc(-c2ccc([C@H](C)N)cc2)cn(C)c1=O [Compound I-93]	6.95
CCn1cc(-c2ccc(C(=O)N3CCN(C)CC3)cc2)c2ccccc2c1=O [II-15]	6.40
Cc1cc(-c2cc(C)c(=O)n(C)c2)ccc1CN1CCNCC1 [Compound I-33, 1,3-Dimethyl-5-(3-methyl-4-piperazin-1-ylmethyl-phenyl)-1H-pyridin-2-one]	7.66
Cc1ccc(-c2cc(C)c(=O)n(C)c2)cc1NCc1cccnc1 [Compound I-42, 1,3-Dimethyl-5-{4-methyl-3-[(pyridin-3-ylmethyl)-amino]-phenyl}-1H-pyridin-2-one]	6.33
CNc1cccc2c(=O)n(C)cc(-c3ccc(C)c(NS(C)(=O)=O)c3)c12 [II-39, N-[2-Methyl-5-(2-methyl-5-methylamino-1-oxo-1,2-dihydro-isoquinolin-4-yl)-phenyl]-methanesulfonamide]	5.11
CN1CCN(C(=O)c2ccc(-c3cc(O)c(=O)n(C)c3)cc2)CC1 [Compound I-45, 3-Hydroxy-1-methyl-5-[4-(4-methyl-piperazine-1-carbonyl)-phenyl]-1H-pyridin-2-one]	5.68
Cc1ccc(-c2cn(C)c(=O)c3cccc(C)c23)cc1NS(C)(=O)=O [II-28, N-[5-(2,5-Dimethyl-1-oxo-1,2-dihydro-isoquinolin-4-yl)-2-methyl-phenyl]-methanesulfonamide]	6.03
Cc1cc(-c2ccc(C(=O)N3CCN(C)CC3)c(CS(C)(=O)=O)c2)cn(C)c1=O [Compound I-171]	6.99

SMILES	pIC50
CNc1cc(-c2ccc(C)c(NS(C)(=O)=O)c2)cn(C)c1=O [Compound I-32, N-[2-Methyl-5-(1-methyl-5-methylamino-6-oxo-1,6-dihydro-pyridin-3-yl)-phenyl]-methanesulfonamide]	5.69
Cc1cc(-c2ccc(C(=O)N3CCN(C)CC3)c(O)c2)cn(C)c1=O [Compound I-188, 5-[3-Hydroxy-4-(4-methyl-piperazine-1-carbonyl)-phenyl]-1,3-dimethyl-1H-pyridin-2-one]	6.57
Cc1cc(-c2cccc(OC(F)F)c2)cn(C)c1=O [Compound I-101]	6.30
COc1cc(-c2cc(C)c(=O)n(C)c2)ccc1CN1CCN(C)CC1 [Compound I-191, 5-[3-methoxy-4-(4-methyl-piperazin-1-ylmethyl)-phenyl]-1,3-dimethyl-1H-pyridin-2-one]	8.52
CN1CCN(C(=O)c2ccc(-c3cc(Br)c(=O)n(C)c3)cc2)CC1 [Compound I-44]	6.29
Cc1ccc(-c2cc(C)c(=O)n(C)n2)cc1NS(C)(=O)=O [Compound I-26]	5.59
CCS(=O)(=O)Nc1cc(-c2cn(C)c(=O)c3ccccc23)ccc1C [II-35, Ethanesulfonic acid [2-methyl-5-(2-methyl-1-oxo-1,2-dihydro-isoquinolin-4-yl)-phenyl]-amide]	6.53
Cc1c(-c2ccc(C(=O)N3CCN(C)CC3)cc2)cn(C)c(=O)c1C [Compound I-18]	6.95
Cc1ccc(-c2cn(C)c(=O)c3cc(N)ccc23)cc1NS(C)(=O)=O [II-37, N-[5-(7-Amino-2-methyl-1-oxo-1,2-dihydro-isoquinolin-4-yl)-2-methyl-phenyl]-methanesulfonamide]	5.57
Cc1cc(-c2cc(C)c(=O)n(C)c2)ccc1C(=O)N1CCNCC1 [Compound I-162]	7.48
Cc1cc(-c2ccc(C(=O)N3CCNCC3)cc2)cn(C)c1=O [Compound I-37, 1,3-Dimethyl-5-[4-(piperazine-1-carbonyl)-phenyl]-1H-pyridin-2-one]	7.47
Cc1cc(-c2ccc(C(=O)N3CCN(C)CC3)c(F)c2)cn(C)c1=O [Compound I-15]	6.55
CN1CCN(C(=O)c2ccc(-c3cn(C4CC4)c(=O)c4ccccc34)cc2)CC1 [II-18]	6.01
Cc1cc(-c2cccc(OC(F)(F)F)c2)cn(C)c1=O [Compound I-16]	6.25
COc1cc(-c2cc(C)c(=O)n(C)c2)ccc1C(=O)N1CCNCC1 [Compound I-158]	7.72
Cc1cc(-c2ccc(C(=O)N3CCN(C)CC3)cc2)cn(C)c1=O [Compound I-9]	6.76
Cc1cc(-c2ccc(CN)cc2)cn(C)c1=O [Compound I-78]	6.89
CN1CCN(C(=O)c2ccc(-c3cc(I)c(=O)n(C)c3)cc2)CC1 [Compound I-43, 3-Iodo-1-methyl-5-[4-(4-methyl-piperazine-1-carbonyl)-phenyl]-1H-pyridin-2-one]	7.19
Cc1ccc(-c2cn(C)c(=O)c3cccc(O)c23)cc1NS(C)(=O)=O [II-36, N-[5-(5-Hydroxy-2-methyl-1-oxo-1,2-dihydro-isoquinolin-4-yl)-2-methyl-phenyl]-methanesulfonamide]	5.28
CN1CCN(C(=O)c2ccc(-c3cc(C(F)F)c(=O)n(C)c3)cc2)CC1 [Compound I-27]	6.15
Cc1cc(-c2ccc([C@@H](C)N)cc2)cn(C)c1=O [Compound I-94]	6.48
